Experimental findings from US9783556B2, “Kinase inhibitors” (RESPIVERT LIMITED, priority 2012, dated 2017) are described below.

pIC50: −log10 of the molar value. Where two headings read alike, the source gives them in different places.

Assay [1] addresses c-Src (Homo sapiens (Human), UniProt P12931). In words: c-Src enzyme inhibition (Z-LYTE FRET). The assay is classed as biochemical. As to the method: (§1) The enzyme inhibitory activities of compounds disclosed herein are determined by FRET using synthetic peptides labelled with both donor and acceptor fluorophores (Z-LYTE, Invitrogen Ltd., Paisley, UK).
(§2) The inhibitory activities of compounds of the invention against c-Src and Syk enzymes (Invitrogen), are evaluated in a similar fashion to that described hereinabove. The relevant enzyme (3000 ng/mL or 2000 ng/mL respectively, 2.5 μL) is incubated with the test compound (either 4 μg/mL, 0.4 μg/mL, 0.04 μg/mL, or 0.004 μg/mL, 2.5 μL each) for 2 hr at RT. The FRET peptides (8 μM, 2.5 μL), and appropriate ATP solutions (2.5 μL, 800 μM for c-Src, and 60 μM ATP for Syk) are then added to the enzymes/compound mixtures and incubated for 1 hr. Development reagent (protease, 5 μL) is added for 1 hr prior to detection in a fluorescence microplate reader (Varioskan® Flash, ThermoFisher Scientific).
(§3) In all cases, the site-specific protease cleaves non-phosphorylated peptide only and eliminates the FRET signal. Phosphorylation levels of each reaction are calculated using the ratio of coumarin emission (donor) over fluorescein emission (acceptor), for which high ratios indicate high phosphorylation and low ratios indicate low phosphorylation levels. The percentage inhibition of each reaction is calculated relative to non-inhibited control and the 50% inhibitory concentration (IC50 value) is then calculated from the concentration-response curve.

Assay [2] deals with Syk (Homo sapiens (Human), UniProt P43405). In words: Syk enzyme inhibition (Z-LYTE FRET). Type of assay: biochemical. As to the method: as §1, §2, §3
Assay [3] relates to HT29 cells. Nature of the assay: IL-1β-induced IL-8 release in HT29 cells. Type of assay: cell-based. Particulars: Homo sapiens, HT-29, IL-1β-stimulated HT29 cells, read-out: IC50 Values for Inhibition of Cytokine Release HT29 cells IL-8. The protocol: HT29 cells, a human colon adenocarcinoma cell line, are plated in a 96 well plate (24 hrs) and pre-treated with compounds at the desired concentration for 2 hours before addition of 5 ng/mL of IL-1β (Abcam) for 24 hours. Supernatants are harvested for IL-8 quantification by Sandwich ELISA (Duo-set, R&D System). The IC50 is determined from the dose response curve.

The test system of assay [4] is PBMCs. Nature of the assay: LPS-induced TNFα/IL-8 release in PBMC cells. Type of assay: cell-based. Particulars: Homo sapiens, LPS-stimulated PBMCs. As to the method:
Peripheral blood mononuclear cells (PBMCs) from healthy subjects are separated from whole blood using a density gradient (Lymphoprep, Axis-Shield Healthcare). The PBMCs are seeded in 96 well plates and treated with compounds at the desired concentration for 2 hours before addition of 1 ng/mL LPS (Escherichia Coli 0111:B4 from Sigma Aldrich) for 24 hours under normal tissue culture conditions (37° C., 5% CO2). The supernatant is harvested for determination of IL-8 and TNFα concentrations by sandwich ELISA (Duo-set, R&D systems) and read on the fluorescence microplate reader (Varioskan® Flash, ThermoFisher Scientific). The concentration at 50% inhibition (IC50) of IL-8 and TNFα production is calculated from the dose response curve.

Assay [5] relates to d-U937 cells. Nature of the assay: LPS-induced TNFα/IL-8 release in d-U937 cells. The assay is classed as cell-based. Particulars: Homo sapiens, dU937, LPS-stimulated d-U937 cells. As to the method:
U937 cells, a human monocytic cell line, are differentiated to macrophage-type cells by incubation with phorbol myristate acetate (PMA; 100 ng/mL) for 48 to 72 hr. Cells are pre-incubated with final concentrations of test compound for 2 hr and are then stimulated with 0.1 μg/mL of LPS (from E. Coli: O111:B4, Sigma) for 4 hr. The supernatant is collected for determination of TNFα and IL-8 concentrations by sandwich ELISA (Duo-set, R&D systems). The inhibition of TNFα production is calculated as a percentage of that achieved by 10 μg/mL of BIRB796 at each concentration of test compound by comparison against vehicle control. The relative 50% effective concentration (REC50) is determined from the resultant concentration-response curve. The inhibition of IL-8 production is calculated at each concentration of test compound by comparison with vehicle control. The 50% inhibitory concentration (IC50) is determined from the resultant concentration-response curve.

The target in assay [6] is GSK 3α (Homo sapiens (Human), UniProt P49840). Nature of the assay: GSK 3α enzyme inhibition (Z-LYTE FRET). Type of assay: biochemical. To be noted: read-out: IC50 Values for Enzyme Inhibition GSK3α. As to the method:
as §1
The following two assay variants can be used for determination of GSK 3α inhibition.
The inhibitory activities of compounds of the invention against the GSK 3α enzyme isoform (Invitrogen), are evaluated by determining the level of activation/phosphorylation of the target peptide. The GSK3-α protein (500 ng/mL, 2.5 μL) is mixed with the test compound (2.5 μL at either 4 μg/mL, 0.4 μg/mL, 0.04 μg/mL, or 0.004 μg/mL) for 2 hr at RT. The FRET peptide (8 μM, 2.5 μL), which is a phosphorylation target for GSK3α, and ATP (40 μM, 2.5 μL) are then added to the enzyme/compound mixture and the resulting mixture incubated for 1 hr. Development reagent (protease, 5 μL) is added for 1 hr prior to detection in a fluorescence microplate reader (Varioskan® Flash, ThermoFisher Scientific).
as §3
This method follows the same steps as Method 1 above, but utilises a shorter period of mixing of the test compound (105 minutes instead of 2 hours) with the GSK3-α protein.

Assay [7] has as its system PBMCs. Nature of the assay: IL-2 and IFN gamma release in CD3/CD28 stimulated PBMC cells. Particulars: Homo sapiens, IL-2, read-out: IC50 Values for Inhibition of Cytokine Release PBMCs IL-2. Type of assay: cell-based. As to the method: PBMCs from healthy subjects are separated from whole blood using a density gradient (Lymphoprep, Axis-Shield Healthcare). Cells are added to a 96 well plate pre-coated with a mixture of CD3/CD38 monoclonal antibodies (0.3 μg/mL eBioscience and 3 μg/mL BD Pharmingen respectively). Compound at the desired concentration is then added to the wells and the plate left for 3 days under normal tissue culture conditions. Supernatants are harvested and IL-2 and IFN gamma release determined by Sandwich ELISA (Duo-set, R&D System). The IC50 is determined from the dose response curve.

In assay [8] the target is p38 MAPKα isoform (MAPK14) (Homo sapiens (Human), UniProt Q16539). In words: p38 MAPKα enzyme inhibition (Z-LYTE FRET). Type of assay: biochemical. The protocol: as §1
The following two assay variants can be used for determination of p38 MAPKα inhibition.
The inhibitory activities of test compounds against the p38 MAPKα isoform (MAPK14: Invitrogen), are evaluated indirectly by determining the level of activation/phosphorylation of the down-stream molecule, MAPKAP-K2. The p38 MAPKα protein (80 ng/mL, 2.5 μL) is mixed with the test compound (2.5 μL of either 4 μg/mL, 0.4 μg/mL, 0.04 μg/mL or 0.004 μg/mL) for 2 hr at RT. […] The mixture is incubated for 1 hr at RT. Development reagent (protease, 5 μL) is added for 1 hr prior to detection in a fluorescence microplate reader (Varioskan® Flash, ThermoFisher Scientific).
This method follows the same steps as Method 1 above, but utilises a higher concentration of the p38 MAPKα protein (2.5 μL of 200 ng/mL protein instead of 2.5 μL of 80 ng/mL protein) for mixing with the test compound.
as §3

[9] abbreviates: IL-8, read-out: IC50 Values for Inhibition of Cytokine Release PBMCs IL-8.
Setting [10] is: TNFα, read-out: IC50 Values for Inhibition of Cytokine Release PBMCs TNFα.
[11] abbreviates: IL-8, read-out: IC50 Values for Inhibition of Cytokine Release dU937 cells IL-8.
[12] abbreviates: TNFα, method describes REC50 relative to BIRB796, read-out: IC50 Values for Inhibition of Cytokine Release dU937 cells TNFα.

c-Src, sequence (P12931 whole entry, looked up): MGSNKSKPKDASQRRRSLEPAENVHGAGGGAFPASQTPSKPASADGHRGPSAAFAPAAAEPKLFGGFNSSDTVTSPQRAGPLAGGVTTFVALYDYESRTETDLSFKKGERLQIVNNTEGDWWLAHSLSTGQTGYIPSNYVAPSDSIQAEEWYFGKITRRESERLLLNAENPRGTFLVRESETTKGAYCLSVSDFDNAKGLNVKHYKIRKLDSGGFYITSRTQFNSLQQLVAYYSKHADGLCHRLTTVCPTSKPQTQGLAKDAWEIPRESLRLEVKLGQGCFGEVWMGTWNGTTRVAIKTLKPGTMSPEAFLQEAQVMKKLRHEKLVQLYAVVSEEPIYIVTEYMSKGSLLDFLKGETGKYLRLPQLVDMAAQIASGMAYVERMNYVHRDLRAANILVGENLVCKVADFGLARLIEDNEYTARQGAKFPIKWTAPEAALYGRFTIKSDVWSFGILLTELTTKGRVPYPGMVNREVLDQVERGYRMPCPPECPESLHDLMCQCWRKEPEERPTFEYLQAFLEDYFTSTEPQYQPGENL
GSK 3α, sequence (P49840 whole entry): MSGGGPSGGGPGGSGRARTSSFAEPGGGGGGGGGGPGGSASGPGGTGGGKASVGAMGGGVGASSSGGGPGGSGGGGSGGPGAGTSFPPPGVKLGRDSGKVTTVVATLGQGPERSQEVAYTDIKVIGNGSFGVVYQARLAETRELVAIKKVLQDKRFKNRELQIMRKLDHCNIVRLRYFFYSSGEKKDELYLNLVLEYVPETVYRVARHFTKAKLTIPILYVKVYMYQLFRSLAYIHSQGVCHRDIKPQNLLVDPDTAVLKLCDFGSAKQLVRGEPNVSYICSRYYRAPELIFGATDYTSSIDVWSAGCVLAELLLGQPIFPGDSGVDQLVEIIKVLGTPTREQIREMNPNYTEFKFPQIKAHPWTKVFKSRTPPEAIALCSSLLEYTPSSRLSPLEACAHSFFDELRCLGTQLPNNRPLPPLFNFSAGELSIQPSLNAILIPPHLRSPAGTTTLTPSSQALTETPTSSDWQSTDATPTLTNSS
p38 MAPKα isoform (MAPK14), sequence (Q16539 whole entry, canonical isoform): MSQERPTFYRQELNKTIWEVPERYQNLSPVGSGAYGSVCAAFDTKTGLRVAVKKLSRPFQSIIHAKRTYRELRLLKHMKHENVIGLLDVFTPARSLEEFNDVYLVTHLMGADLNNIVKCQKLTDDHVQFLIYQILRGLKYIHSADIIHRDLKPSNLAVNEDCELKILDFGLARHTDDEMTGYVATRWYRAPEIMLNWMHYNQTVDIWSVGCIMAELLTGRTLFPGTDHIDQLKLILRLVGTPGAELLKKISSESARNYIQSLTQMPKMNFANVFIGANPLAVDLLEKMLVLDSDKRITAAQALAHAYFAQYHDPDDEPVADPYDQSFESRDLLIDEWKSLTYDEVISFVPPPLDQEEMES

The pIC50 is −log10 of the IC50, conventionally taken in molar units. As for `Cc1ccc(-n2nc([Si](C)(C)C)cc2NC(=O)Nc2ccc(Oc3ccnc(Nc4ccccc4)n3)c3ccccc23)cc1` [Example 1, 1-(4-((2-(Phenylamino)pyrimidin-4-yl)oxy)naphthalen-1-yl)-3-(1-(p-tolyl)-3-(trimethylsilyl)-1H-pyrazol-5-yl)urea], the pIC50 is 7.11 in assay [1]; below 6.00 in assay [2]; 7.81 in assay [3]; 7.85 in assay [4] (setting [9]); 8.55 in assay [4] (setting [10]); 8.34 in assay [5] (setting [11]). Moreover, the negative-log IC50 (pIC50) in assay [5] (setting [12]) is 8.60; in assay [6], below 5.00; in assay [7], 6.56; in assay [8], 6.82.

In the case of `COc1ccc(-n2nc([Si](C)(C)C)cc2NC(=O)Nc2ccc(Oc3ccnc(Nc4ccccc4)n3)c3ccccc23)cn1` [Example 2, 1-(1-(6-Methoxypyridin-3-yl)-3-(trimethylsilyl)-1H-pyrazol-5-yl)-3-(4-((2-(phenylamino)pyrimidin-4-yl)oxy)naphthalen-1-yl)urea], the pIC50 in assay [1] was 7.03; in assay [2] it was below 6.00; in assay [3], 7.92; in assay [4] (setting [9]), 8.08; in assay [4] (setting [10]) it was 8.57; in assay [5] (setting [11]), 8.59. The pIC50 was 8.74 in assay [5] (setting [12]), 5.49 in assay [6], 6.89 in assay [7] and 6.48 in assay [8].

`C[Si](C)(C)c1cc(NC(=O)Nc2ccc(Oc3ccnc(Nc4ccccc4)n3)c3ccccc23)n(-c2ccc(OCCN3CCOCC3)cc2)n1` [Example 3, 1-(1-(4-(2-Morpholinoethoxy)phenyl)-3-(trimethylsilyl)-1H-pyrazol-5-yl)-3-(4-((2-(phenylamino)pyrimidin-4-yl)oxy)naphthalen-1-yl)urea]: the negative-log IC50 (pIC50) in assay [1] is 6.64; in assay [2], below 6.00; in assay [3], 7.87; in assay [4] (setting [9]), 8.03; in assay [5] (setting [11]), 7.74; in assay [5] (setting [12]), 8.70. Also, the pIC50 is 5.30 in assay [6], 7.11 in assay [7] and 6.46 in assay [8].

`Cc1ccc(-n2nc([Si](C)(C)C)cc2NC(=O)Nc2ccc(Oc3ccnc(Nc4cccc(OCCN5CCOCC5)c4)n3)c3ccccc23)cc1` [Example 6, 1-(4-((2-((3-(2-Morpholinoethoxy)phenyl)amino)pyrimidin-4-yl)oxy)naphthalen-1-yl)-3-(1-(p-tolyl)-3-(trimethylsilyl)-1H-pyrazol-5-yl)urea]: the negative logarithm of the IC50 (pIC50) in assay [1] is 8.00; in assay [2] it was 8.15; in assay [3], 8.06; in assay [4] (setting [9]), 8.32; in assay [4] (setting [10]), 9.15; in assay [5] (setting [11]) it was 8.74. The pIC50 in assay [5] (setting [12]) is 8.82; in assay [6], below 5.70; in assay [7] it was 7.80; in assay [8], 6.50.

In the case of `Cc1ccc(-n2nc([Si](C)(C)C)cc2NC(=O)Nc2ccc(Oc3ccnc(Nc4ccc5[nH]ncc5c4)n3)c3ccccc23)cc1` [Example 7, 1-[4-[2-(1H-Indazol-5-ylamino)pyrimidin-4-yl]oxy-1-naphthyl]-3-[2-(p-tolyl)-5-trimethylsilyl-pyrazol-3-yl]urea], the negative logarithm of the IC50 (pIC50) was 7.35 in assay [1]; 6.17 in assay [2]; 7.78 in assay [3]; 7.92 in assay [4] (setting [9]); 8.48 in assay [4] (setting [10]); 8.07 in assay [5] (setting [11]). Further, the pIC50 in assay [5] (setting [12]) was 8.72; in assay [6], below 5.00; in assay [7], 7.32; in assay [8], 6.42.

On to `Cc1ccc(-n2nc([Si](C)(C)C)cc2NC(=O)Nc2ccc(Oc3ccnc(Nc4cc(C)c5[nH]ncc5c4)n3)c3ccccc23)cc1` [Example 9, 1-(4-((2-((7-Methyl-1H-indazol-5-yl)amino)pyrimidin-4-yl)oxy)naphthalen-1-yl)-3-(1-(p-tolyl)-3-(trimethylsilyl)-1H-pyrazol-5-yl)urea], for which the pIC50 is 6.87 in assay [1]; 6.28 in assay [2]; 8.32 in assay [3]; 8.47 in assay [4] (setting [9]); 8.59 in assay [5] (setting [11]); 8.92 in assay [5] (setting [12]). The pIC50 is below 5.00 in assay [6], 7.39 in assay [7] and 6.45 in assay [8].

Take `Cc1ccc(-n2nc([Si](C)(C)C)cc2NC(=O)Nc2ccc(Oc3ccnc(Nc4ccc5c(c4)NC(=O)C5)n3)c3ccccc23)cc1` [Example 10, 1-(4-((2-((2-Oxoindolin-6-yl)amino)pyrimidin-4-yl)oxy)naphthalen-1-yl)-3-(1-(p-tolyl)-3-(trimethylsilyl)-1H-pyrazol-5-yl)urea]: the pIC50 in assay [1] is 7.72; in assay [2] it was 6.00; in assay [3], 8.30; in assay [4] (setting [9]), 8.46; in assay [5] (setting [11]), 8.70; in assay [5] (setting [12]) it was 8.80. Also, the figures for the pIC50 in assay [6], in assay [7] and in assay [8] were below 5.00, 6.71 and 6.27, respectively.
